# Assay results published in PubChem BioAssay (NCI).
#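 Assay format: 96-well plates, 48-hour exposure. The concentration for full growth arrest is given as TGI.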
# Tests used:
# Assay in all cases: NCI tumour cell line growth inhibition, 48 h
# [1] = test system: 786-0 renal
# [2] = test system: A498 renal
# [3] = test system: A549 NSCLC
# [4] = test system: ACHN renal
# [5] = test system: BT-549 breast
# [6] = test system: CAKI-1 renal
# [7] = test system: CCRF-CEM leukemia
# [8] = test system: COLO 205 colon
# [9] = test system: DU-145 prostate
# [10] = test system: EKVX NSCLC
# [11] = test system: HCC-2998 colon
# [12] = test system: HCT-116 colon
# [13] = test system: HCT-15 colon
# [14] = test system: HL-60(TB) leukemia
# [15] = test system: HOP-62 NSCLC
# [16] = test system: HOP-92 NSCLC
# [17] = test system: HS 578T breast
# [18] = test system: HT29 colon
# [19] = test system: IGROV1 ovarian
# [20] = test system: K-562 leukemia
# [21] = test system: KM12 colon
# [22] = test system: LOX IMVI melanoma
# [23] = test system: M14 melanoma
# [24] = test system: MALME-3M melanoma
# [25] = test system: MCF7 breast
# [26] = test system: MDA-MB-231 breast
# [27] = test system: MDA-MB-435
# [28] = test system: MDA-N
# [29] = test system: MOLT-4 leukemia
# [30] = test system: NCI-H226 lung
# [31] = test system: NCI-H23 lung
# [32] = test system: NCI-H460 lung
# [33] = test system: NCI-H522 lung
# [34] = test system: NCI/ADR-RES ovarian
# [35] = test system: OVCAR-3 ovarian
# [36] = test system: OVCAR-4 ovarian
# [37] = test system: OVCAR-5 ovarian
# [38] = test system: OVCAR-8 ovarian
# [39] = test system: PC-3 prostate
# [40] = test system: RPMI-8226 leukemia
# [41] = test system: RXF 393 renal
# [42] = test system: SF-268 CNS
# [43] = test system: SF-295 CNS
# [44] = test system: SF-539 CNS
# [45] = test system: SK-MEL-2 melanoma
# [46] = test system: SK-MEL-28 melanoma
# [47] = test system: SK-MEL-5 melanoma
# [48] = test system: SK-OV-3 ovarian
# [49] = test system: SN12C renal
# [50] = test system: SNB-19 CNS
# [51] = test system: SNB-75 CNS
# [52] = test system: SW-620 colon
# [53] = test system: T-47D breast
# [54] = test system: TK-10 renal
# [55] = test system: U251 CNS
# [56] = test system: UACC-257 melanoma
# [57] = test system: UACC-62 melanoma
# [58] = test system: UO-31 renal
smiles,measurement,setting,value
COc1cc(C(=O)N(C)N(C)C)cc(OC)c1OC,TGI,[1],> 10 µM
same,TGI,[2],> 10 µM
same,TGI,[3],> 10 µM
same,TGI,[4],> 10 µM
same,TGI,[5],> 10 µM
same,TGI,[6],> 10 µM
same,TGI,[7],> 10 µM
same,TGI,[8],> 10 µM
same,TGI,[9],> 10 µM
same,TGI,[10],> 10 µM
same,TGI,[11],> 10 µM
same,TGI,[12],> 10 µM
same,TGI,[13],> 10 µM
same,TGI,[14],> 10 µM
same,TGI,[15],> 10 µM
same,TGI,[16],> 10 µM
same,TGI,[17],> 10 µM
same,TGI,[18],> 10 µM
same,TGI,[19],> 10 µM
same,TGI,[20],> 10 µM
same,TGI,[21],> 10 µM
same,TGI,[22],> 10 µM
same,TGI,[23],> 10 µM
same,TGI,[24],> 10 µM
same,TGI,[25],> 10 µM
same,TGI,[26],> 10 µM
same,TGI,[27],> 10 µM
same,TGI,[28],> 10 µM
same,TGI,[29],> 10 µM
same,TGI,[30],> 10 µM
same,TGI,[31],> 10 µM
same,TGI,[32],> 10 µM
same,TGI,[33],> 10 µM
same,TGI,[34],> 10 µM
same,TGI,[35],> 10 µM
same,TGI,[36],> 10 µM
same,TGI,[37],> 10 µM
same,TGI,[38],> 10 µM
same,TGI,[39],> 10 µM
same,TGI,[40],> 10 µM
same,TGI,[41],> 10 µM
same,TGI,[42],> 10 µM
same,TGI,[43],> 10 µM
same,TGI,[44],> 10 µM
same,TGI,[45],> 10 µM
same,TGI,[46],> 10 µM
same,TGI,[47],> 10 µM
same,TGI,[48],> 10 µM
same,TGI,[49],> 10 µM
same,TGI,[50],> 10 µM
same,TGI,[51],> 10 µM
same,TGI,[52],> 10 µM
same,TGI,[53],> 10 µM
same,TGI,[54],> 10 µM
same,TGI,[55],> 10 µM
same,TGI,[56],> 10 µM
same,TGI,[57],> 10 µM
same,TGI,[58],> 10 µM
Nc1nc(Cl)c(N=Nc2ccc(Cl)cc2)c(NCC2(CO)CCC(CCc3ccccc3)C2)n1 (stereo unspecified),TGI,[1],21.6 µM
same,TGI,[2],27.3 µM
same,TGI,[3],51.7 µM
same,TGI,[4],19.9 µM
same,TGI,[5],23.4 µM
same,TGI,[6],13.5 µM
same,TGI,[7],8.84 µM
same,TGI,[8],19.4 µM
same,TGI,[9],25.9 µM
same,TGI,[10],28.3 µM
same,TGI,[11],17.3 µM
same,TGI,[12],20.2 µM
same,TGI,[13],24.7 µM
same,TGI,[14],20.9 µM
same,TGI,[15],28.1 µM
same,TGI,[16],29.3 µM
same,TGI,[17],> 55.3 µM
same,TGI,[18],30.4 µM
same,TGI,[19],23.4 µM
same,TGI,[20],9.78 µM
same,TGI,[21],26.9 µM
same,TGI,[22],4.59 µM
same,TGI,[23],31.5 µM
same,TGI,[24],51 µM
same,TGI,[25],19.5 µM
same,TGI,[26],31.2 µM
same,TGI,[27],23.7 µM
same,TGI,[28],30.2 µM
same,TGI,[29],8.49 µM
same,TGI,[30],19.4 µM
same,TGI,[31],15.6 µM
same,TGI,[32],30.6 µM
same,TGI,[33],5.42 µM
same,TGI,[34],34.4 µM
same,TGI,[35],23.6 µM
same,TGI,[36],10.6 µM
same,TGI,[37],31.3 µM
same,TGI,[38],19.3 µM
same,TGI,[39],25.8 µM
same,TGI,[40],32.9 µM
same,TGI,[41],22.2 µM
same,TGI,[42],33.4 µM
same,TGI,[43],25.7 µM
same,TGI,[44],34.5 µM
same,TGI,[45],33.5 µM
same,TGI,[46],35.3 µM
same,TGI,[47],13.6 µM
same,TGI,[48],26.1 µM
same,TGI,[49],30.2 µM
same,TGI,[50],48.7 µM
same,TGI,[51],28 µM
same,TGI,[52],17 µM
same,TGI,[53],32.2 µM
same,TGI,[54],27.5 µM
same,TGI,[55],31.2 µM
same,TGI,[56],25.1 µM
same,TGI,[57],22.1 µM
same,TGI,[58],4.31 µM
